Experiments:
[1] = test system: Caspase 3/7 activity in TMD8 cells; test: Apoptosis induction, Caspase 3/7 activity in TMD8 cells
Method: 30 μL TMD8 cells were seeded into the 384-well plates in RPMI medium containing 10% FBS at a cell density of 2000 cells per well. Cells treated in the absence of the test compound were the negative control. Following compound treatment, cells were incubated at 37° C. with 5% CO2 for 48 hr. 30 μL reconstituted Caspase 3/7 Assay detection reagent was added to each well and luminescence was acquired on EnVision™ Multilabel Reader (PerkinElmer, Santa Clara, Calif., USA).

[2] = test system: DL40; test: Anti-proliferative activity, 96 hours
[3] = test system: NCIH929.1 cells; test: NCIH929.1 cell viability assay (CellTiter-Glo, GI50); assay type: cell-based; conditions: 96 hr
[4] = biological target: T1, IKZF1 (Mus musculus, UniProt Q03267); test: Ex vivo IKZF1 degradation in PBMC, mouse; assay type: cell-based; conditions: mouse cells
T1 construct: from tissue; host or cells: peripheral blood cells (PBMC) of mice, ex vivo
T1 sequence (Q8C7D2 whole entry partner): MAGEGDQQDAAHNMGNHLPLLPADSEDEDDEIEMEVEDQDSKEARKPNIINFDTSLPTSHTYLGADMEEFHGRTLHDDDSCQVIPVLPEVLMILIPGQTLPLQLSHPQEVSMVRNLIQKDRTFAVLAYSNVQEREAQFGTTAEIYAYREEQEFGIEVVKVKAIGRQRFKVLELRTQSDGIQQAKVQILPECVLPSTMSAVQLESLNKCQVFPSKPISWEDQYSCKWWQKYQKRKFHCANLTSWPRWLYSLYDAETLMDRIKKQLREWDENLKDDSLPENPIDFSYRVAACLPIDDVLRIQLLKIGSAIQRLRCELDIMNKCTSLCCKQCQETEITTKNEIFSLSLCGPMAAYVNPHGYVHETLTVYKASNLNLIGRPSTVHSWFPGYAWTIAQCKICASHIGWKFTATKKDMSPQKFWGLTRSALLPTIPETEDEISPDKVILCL
T1 sequence (Q3U1J4 2-1140 partner limits assumed): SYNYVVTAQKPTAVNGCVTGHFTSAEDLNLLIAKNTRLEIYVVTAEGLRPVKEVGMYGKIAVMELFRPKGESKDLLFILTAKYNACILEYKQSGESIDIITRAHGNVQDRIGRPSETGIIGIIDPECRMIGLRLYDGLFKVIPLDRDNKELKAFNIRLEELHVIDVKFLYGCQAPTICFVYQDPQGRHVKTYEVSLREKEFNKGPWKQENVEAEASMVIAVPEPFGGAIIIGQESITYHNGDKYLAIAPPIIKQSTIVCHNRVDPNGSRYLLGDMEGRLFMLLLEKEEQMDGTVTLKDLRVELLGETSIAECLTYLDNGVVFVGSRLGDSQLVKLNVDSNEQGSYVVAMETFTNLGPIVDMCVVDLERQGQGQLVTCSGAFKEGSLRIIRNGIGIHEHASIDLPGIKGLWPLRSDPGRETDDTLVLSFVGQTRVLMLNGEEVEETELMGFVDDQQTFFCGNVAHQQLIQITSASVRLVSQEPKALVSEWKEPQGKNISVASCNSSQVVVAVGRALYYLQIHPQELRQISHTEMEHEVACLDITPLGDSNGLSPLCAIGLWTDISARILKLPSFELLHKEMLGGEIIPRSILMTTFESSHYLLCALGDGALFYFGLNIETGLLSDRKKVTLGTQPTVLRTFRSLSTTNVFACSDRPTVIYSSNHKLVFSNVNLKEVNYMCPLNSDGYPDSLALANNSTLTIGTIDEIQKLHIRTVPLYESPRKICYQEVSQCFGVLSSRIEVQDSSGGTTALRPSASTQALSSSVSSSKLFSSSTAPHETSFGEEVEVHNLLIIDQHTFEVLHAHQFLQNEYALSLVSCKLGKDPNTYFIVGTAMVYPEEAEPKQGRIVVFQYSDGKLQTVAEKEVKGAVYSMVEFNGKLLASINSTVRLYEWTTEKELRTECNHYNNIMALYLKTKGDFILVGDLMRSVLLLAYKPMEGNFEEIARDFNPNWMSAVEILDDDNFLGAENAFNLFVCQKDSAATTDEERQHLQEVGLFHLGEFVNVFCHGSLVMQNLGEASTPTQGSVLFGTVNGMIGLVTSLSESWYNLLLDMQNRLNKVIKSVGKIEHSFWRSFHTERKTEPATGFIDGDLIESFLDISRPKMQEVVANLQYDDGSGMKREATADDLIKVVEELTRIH
T1 sequence (Q03267 whole entry): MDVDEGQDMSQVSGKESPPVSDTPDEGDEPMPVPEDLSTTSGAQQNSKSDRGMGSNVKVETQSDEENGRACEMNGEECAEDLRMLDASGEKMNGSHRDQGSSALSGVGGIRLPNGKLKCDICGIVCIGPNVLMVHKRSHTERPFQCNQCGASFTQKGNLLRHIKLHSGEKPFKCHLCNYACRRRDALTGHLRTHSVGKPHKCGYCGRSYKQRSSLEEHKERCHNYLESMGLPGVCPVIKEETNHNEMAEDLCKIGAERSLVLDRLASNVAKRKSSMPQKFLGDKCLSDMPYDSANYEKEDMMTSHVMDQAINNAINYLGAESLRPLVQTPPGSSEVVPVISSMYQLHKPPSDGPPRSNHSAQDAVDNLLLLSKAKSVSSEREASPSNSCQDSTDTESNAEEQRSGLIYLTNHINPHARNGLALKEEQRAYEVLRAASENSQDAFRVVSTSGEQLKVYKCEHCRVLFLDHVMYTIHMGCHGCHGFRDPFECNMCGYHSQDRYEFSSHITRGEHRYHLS
Method: IKZF1/3 are not degraded in mouse cells treated with thalidomide or its IMiD® analogs because of a single amino acid difference in mouse cereblon compared to human cereblon that causes steric hindrance and prevents recruitment of IKZF1/3. Ex vivo studies were performed in peripheral blood cells (PBMC) of mice, rats, dogs, and monkeys to identify relevant species for IND enabling-toxicity studies based on the degree of IKZF1 degradation by Compound 1. IKZF1 was not degraded in mouse or rat cells by Compound 1, thus, while rat could not be considered a pharmacologically relevant species for human risk assessment, it was chosen as the rodent species for toxicological studies because it is widely used in toxicity testing and a substantial historical toxicology database is available. […] Therefore, cynomolgus monkey was chosen for non-rodent toxicological studies.

[5] = test system: Caspase 3/7 activity in NCIH929 multiple myeloma cells; test: Apoptosis induction, Caspase 3/7 activity in NCIH929 cells; assay type: cell-based
Method: 30 μL NCIH929 cells were seeded into the 384-well plates in RPMI medium containing 10% FBS and 0.05 mM 2-mercaptoethanol at a cell density of 1000 cells per well. Cells treated in the absence of the test compound were the negative control. Following compound treatment, cells were incubated at 37° C. with 5% CO2 for 72 hr. 30 μL reconstituted Caspase 3/7 Assay detection reagent was added to each well and luminescence was acquired on EnVision™ Multilabel Reader (PerkinElmer, Santa Clara, Calif., USA).

[6] = test system: Pfeiffer; test: Anti-proliferative activity, 96 hours; conditions: Homo sapiens
[7] = test system: Interferon-response proteins in DL-40 ALCL xenograft tumors; test: Global proteomics and gene ontology of DL-40 ALCL xenograft tumors, 48 hours after dose; assay type: in vivo, mice; conditions: 0.1 nM for 48 hr
Method: […] Gene ontology analysis was done by using BINGO, a Java-based tool that is implemented as a plugin for Cytoscape. Default settings were used to assess the overexpression of GO categories and the interactions among altered proteins were determined using the STRING database, with a cutoff score of 700.

O=C1CC[C@H](N2C(=O)c3cccc4c(Cc5ccc(CN6CCOCC6)cc5)ccc2c34)C(=O)N1 (single isomer, unassigned) [Compound 1]
Maximum caspase 3/7 activity ([1]; 48 hr): > 8 fold | activity level of caspase-3 and caspase-7 increased ([1]; FIG. 51): more than 800% | EC50 ([1]; Homo sapiens, TMD8, 48 h, read-out: EC50, caspase 3/7 activity): 2.7 nM | IC50 [2]: 0.91 nM | GI50 [3]: 0.0743 nM | IKZF1 degradation [4]: not degraded | Maximum caspase 3/7 activity ([5]; 72 hours): > 2 fold | EC50 ([5]; Homo sapiens, NCI-H929, 72 h, read-out: EC50, caspase 3/7 activity): 0.58 nM | IC50 [6]: 1.08 nM | Log2 vs Vehicle, AAAS [7]: 0.043 | Log2 vs Vehicle, ABCE1 [7]: −0.112 | Log2 vs Vehicle, ADAR [7]: 0.065 | Log2 vs Vehicle, ARIHI [7]: 0.023 | Log2 vs Vehicle, B2M [7]: −0.048 | Log2 vs Vehicle, BST2 [7]: 0.241 | Log2 vs Vehicle, CAMK2A [7]: −0.697 | Log2 vs Vehicle, CAMK2B [7]: 0.054 | Log2 vs Vehicle, CAMK2D [7]: 0.038 | Log2 vs Vehicle, CAMK2G [7]: −0.054 | Log2 vs Vehicle, CD44 [7]: −0.377 | Log2 vs Vehicle, CIITA [7]: −0.076 | Log2 vs Vehicle, DDX58 [7]: 0.455 | Log2 vs Vehicle, EIF2AK2 [7]: 0.527 | Log2 vs Vehicle, EIF4A1 [7]: 0.13 | Log2 vs Vehicle, EIF4A2 [7]: 0.08 | Log2 vs Vehicle, EIF4A3 [7]: 0.079 | Log2 vs Vehicle, EIF4E2 [7]: 0.179 | Log2 vs Vehicle, EIF4E3 [7]: 0.208 | Log2 vs Vehicle, EIF4G1 [7]: −0.048 | Log2 vs Vehicle, EIF4G2 [7]: −0.071 | Log2 vs Vehicle, EIF4G3 [7]: −0.108 | Log2 vs Vehicle, FLNA [7]: 1.179 | Log2 vs Vehicle, FLNB [7]: 0.234 | Log2 vs Vehicle, GBP1 [7]: 0.343 | Log2 vs Vehicle, GBP2 [7]: −0.269 | Log2 vs Vehicle, GBP4 [7]: 0.388 | Log2 vs Vehicle, HERC5 [7]: −0.149 | Log2 vs Vehicle, HLA-A [7]: −0.128 | Log2 vs Vehicle, HLA-B [7]: 0.066 | Log2 vs Vehicle, HLA-C [7]: −0.065 | Log2 vs Vehicle, HLA-DPA1 [7]: −0.139 | Log2 vs Vehicle, HLA-DPB1 [7]: −0.023 | Log2 vs Vehicle, HLA-DQA2 [7]: −0.144 | Log2 vs Vehicle, HLA-DQB1 [7]: 0.055 | Log2 vs Vehicle, HLA-DRA [7]: −0.133 | Log2 vs Vehicle, HLA-DRB1 [7]: −0.1 | Log2 vs Vehicle, HLA-E [7]: −0.167 | Log2 vs Vehicle, HLA-F [7]: 0.408 | Log2 vs Vehicle, ICAM1 [7]: 0.31 | Log2 vs Vehicle, IFI30 [7]: 0.217 | Log2 vs Vehicle, IFI35 [7]: 0.153 | Log2 vs Vehicle, IFIT2 [7]: −0.186 | Log2 vs Vehicle, IFIT3 [7]: 0.736 | Log2 vs Vehicle, IR.F9 [7]: 0.535 | Log2 vs Vehicle, IRF1 [7]: 0.147 | Log2 vs Vehicle, IRF2 [7]: −0.265 | Log2 vs Vehicle, IRF3 [7]: 0.114 | Log2 vs Vehicle, IRF4 [7]: −0.452 | Log2 vs Vehicle, IRF5 [7]: 0.192 | Log2 vs Vehicle, IRF7 [7]: 0.264 | Log2 vs Vehicle, ISG15 [7]: 0.241 | Log2 vs Vehicle, ISG20 [7]: −0.168 | Log2 vs Vehicle, J A KI [7]: 0.036 | Log2 vs Vehicle, KPNA1 [7]: 0.045 | Log2 vs Vehicle, KPNA2 [7]: 0.058 | Log2 vs Vehicle, KPNA3 [7]: 0 | Log2 vs Vehicle, KPNA4 [7]: 0.075

Reference: patent US20230190760A1, “ADVANTAGEOUS THERAPIES FOR DISORDERS MEDIATED BY IKAROS OR AIOLOS” (C4 Therapeutics, Inc., priority 2020, published 2023)
